Three compounds from patent US12325646B2, “Fertigation water treatment” (UNIVERSITY OF GUELPH, priority 2019, dated 2025) can be followed below.

≈ marks a conversion by molar mass, not a printed value. Where “and” joins values, the source holds several entries; their conditions need not be identical. Identical values can stand only once. Entries after “also recorded” stand apart in the source; their conditions may differ. Like-named read-outs stand apart in the source and are kept apart here.

Series [1] concerns Lemna minor. Description: Lemna minor bioassay (dose-response, 7-day growth). The series is classed as in vivo. The note with it: for EC50: 168 h, read-out: EC50 dose from dose-response analysis of Lemna minor growth. The source says:
A sterile culture of Lemna minor was obtained from the laboratory of Dr. Ryan Prosser (University of Guelph, School of Environmental Science). The culture was transferred to a 1 L Erlenmeyer flask containing a ½ strength Hoagland solution. The cultures were transferred to a growth chamber and were left for a growing period of 7 days. After the growth period, the Erlenmeyer flasks were brought to the lab to use the healthy plants for bioassay and water treatment experiments.
The temperature and humidity sensors were built in house by the Controlled Environment Systems Research Facility (CESRF) at the University of Guelph. The growth chamber conditions for humidity and temperature were recorded using an Acer Aspire 7750 laptop (P7YEO, Acer, Taiwan) and using the Termite software for data logging (version 3.4). The temperature was maintained at 25.68±0.02° C. and the relative humidity was 38.34±0.05%. Lumigrow pro 325 LED lights (LU60001, Lumigrow, USA) were used at a 80:10:10 ratio of Red:Blue:White as overhead lighting for plants (FIGS. 38A & 38B). Furthermore, a grid system inside the growth chamber with 36 grid boxes were used to place Erlenmeyer flasks in a completely randomized design (FIG. 38C). Each ‘grid’ was measured for photosynthetically active radiation (PAR) using a modular spectrometer (USB2000+, Ocean Optics Inc., USA). This allowed to account for random differences attributed to light intensity within the growth chamber. A heat map is generated with this information and in the middle of the ‘grid box’ there was a maximum intensity of […] (FIG. 39).
The analysis of dose-response curves for affecting the growth of Lemna minor was determined using the ‘drc’ package (v. 3.0-1, Christian Ritz, 2016) in the statistical program RStudio (v. 1.0.153, RStudio Inc., USA). The program was used to determine the EC 50 for each measured parameter for plant health and reproduction of the number of plants, number of fronds, and the dry weights of plants contained in each flask.
All solutions were treated with the four different water treatment methods and 75 mL of effluent solution was collected and added in 250 mL Erlenmeyer flasks. Negative control samples only contained 75 mL of deionized water, while all other treatments (positive control, Ozone, AOP, DSA, and BDD) contained 75 mL of the treated and non-treated solution. In a separate 3-litre beaker, a full-strength Hoagland solution was prepared and mixed with a magnetic stirrer (220T, Fisher Scientific, Canada). For each of the Erlenmeyer flasks containing the treated solutions, 75 mL of the Hoagland solution was added into each flask. […] Lemna minor that were previously cultured and acclimated to the ‘Grid box’ were then added to each flask. Two Lemna minor plants with three fronds each were added to flasks for the experiment. All 5 treatments contained 3 Erlenmeyer flasks giving a total of […] and the experiment was performed in triplicate. All of the flasks were placed at random inside the growth chamber within each grid and recorded their location. The pH and electrical conductivity of the solutions were also measured after the 7-day growth period.
Significant differences were only observed at the concentration of 15 mg/L of glyphosate for the final number of fronds and the dry weight of plants (FIGS. 41A & 41B). […] Noticeable differences such as the number of plants, lighter colour of fronds, and spindly roots can be visualized in comparison with the control (FIG. 42A) to the presence of 15 mg/L of glyphosate (FIG. 42B).

Series [2] is described as follows: Electrochemical treatment of chemical standards in batch cell (DSA or BDD anodes). It counts as physicochemical. On the set-up: reduction of compound in solution: concentration or dose not given beside the values. As to conditions: for NPOC decrease / TN decrease: 2.27 mA/cm^2, up to 6-minute contact time, batch cell, 20 mg/L chloride. Here is the method:
Initial water treatment was performed by treating the solution by batch cell using the DSA and BDD anodes, as well as stainless steel (SS) cathodes. The experiment used a 2 L beaker and filled the beaker with 1.8 L of deionized water and dissolved the chemical standards glyphosate (45521, Sigma-Aldrich, USA) or paclobutrazol (46046, Sigma-Aldrich, USA) for separate treatments. The solution was constantly mixed using a magnetic stirrer (220T, Fisher Scientific, Canada) and bar during treatment with chemical standards. Samples containing glyphosate and paclobutrazol standards were submitted to the Agriculture and Food Laboratory (University of Guelph) to quantify samples using LC-MS/MS. The mean quantifiable limit for the analytical method was 8 μg/L for glyphosate, AMPA, and paclobutrazol. The non-purgeable organic carbon (NPOC) and total nitrogen (TN) of the solution were determined using a Shimadzu TOC-Vpn & TNM-1 analyzer. A calibration curve (R^2=0.99) was produced before performing the sample analysis using TOC and TN standards.
The degradation of both glyphosate (8.5 mg/L) and paclobutrazol (12 mg/L) was conducted with the use of electrochemical systems for a direct comparison on their efficacies in a batch cell configuration. […] The NPOC and TN had larger decreases between the 3 and 6-minute contact time with the DSA electrodes for glyphosate, while the changes were more subtle using BDD electrodes.

Series [3] relates to Lemna minor. The series is described as follows: Water treatment of commercial pesticide solutions in the EFC followed by Lemna minor growth test. The series is classed as in vivo.
Where [4] appears, read: BDD electrodes, 2.27 mA/cm^2, 6-minute contact time, LC-MS/MS.
[5] abbreviates: DSA electrodes, 2.27 mA/cm^2, 6-minute contact time, LC-MS/MS.

By EC50 is commonly meant the concentration that produces a half-maximal response. In the case of `CC(C)(C)[C@@H](O)[C@@H](Cc1ccc(Cl)cc1)n1cncn1` (racemic) [paclobutrazol], in the series on Lemna minor [1] (Lemna minor, 7 days in growth chamber, glyphosate as Glyfos, paclobutrazol as Bonzi, drc package), the EC50 was found to be 0.01 µg/mL (≈ 0.034 µM). Moreover, in the series with Lemna minor [1] (Lemna minor, in vivo, 7 days), the LOEC levels is 0.01 mg/L and the “concentration with significant differences for all measured parameters in the health of Lemna minor” value came to 50 ng/mL. In addition, the “effect on plant physiological and reproductive health parameters vs control” value with Lemna minor [1] (in vivo) is reported as “Significant decreases were observed for all tested concentrations”. Moreover, the “reduction of compound in solution” value in series [2] (setting [4]) was 80.94% and 81%. In addition, in series [2] (BDD electrodes), the NPOC decrease is 18.41% and 18%; the TN decrease is 22.58% and 23%. The “reduction of compound in solution” value in series [2] (setting [5]) is 28.29% and 28%. In series [2] (DSA electrodes), the NPOC decrease entry is “unaffected; also recorded: no significant effect”; the TN decrease was 7.12% and 7%. Moreover, the “concentration remaining after treatment, inferred from plant growth parameters” value in the series with Lemna minor [3] (Bonzi, 3 mg/L paclobutrazol, BDD electrodes, recirculated 3 passes, 18 minutes total contact) is “lower than 0.05 mg/L”.
Consider `NCP(=O)(O)O` [AMPA, aminomethylphosphonic acid], for which, in series [2] (BDD electrodes, 2.27 mA/cm^2, 0 to 6-minute contact time), the “increase of AMPA in glyphosate solution” value is 0.10 mg/L. Also, the “AMPA concentration after treatment of glyphosate solution” value in series [2] (BDD electrodes, 2.27 mA/cm^2, 6 minutes, increased from 0.009) is listed as 0.11 mg/L.
Take `O=C(O)CNCP(=O)(O)O` [glyphosate, N-(phosphonomethyl)glycine]: the “concentration with significant differences in final number of fronds and dry weight of plants” value in the series on Lemna minor [1] (Glyfos, 7 days growth) is 15000 ng/mL. The EC50 in the series with Lemna minor [1] (Lemna minor) is about 9 µg/mL (≈ 53.2 µM). Besides, in series [2] (setting [4]), the “reduction of compound in solution” value is 72.47% and 72%. Further, the NPOC decrease in series [2] (BDD electrodes) was 19.73%; in series [2] (BDD electrodes, listed as Glyphosate), 20%; in series [2] (DSA electrodes) it was 16.18% and 16%. The TN decrease in series [2] (BDD electrodes) was 32.61% and 32%; in series [2] (DSA electrodes), 85.97% and 86%. In addition, the “level remaining in solution after treatment (below detection limit)” value in series [2] (setting [5]) is under 8 ng/mL. In the series with Lemna minor [3] (Roundup, 7 mg/L glyphosate, DSA electrodes, 2.27 mA/cm^2, 1-minute contact time), the “concentration remaining after treatment, inferred from plant growth” value is “lower than 2.5 mg/L”.
